# Assay results: patent US11098056B2, “UDP glycosyltransferase inhibitors and methods of use” (GENZYME CORPORATION, priority 2018, dated 2021)
# Structures can show the parent of a compound that is named as a salt.
# Target: T1, UGT8 (Homo sapiens, UniProt Q16880)
# T1 construct: host or cells: OE19 cells
# T1 sequence (Q16880 21-541): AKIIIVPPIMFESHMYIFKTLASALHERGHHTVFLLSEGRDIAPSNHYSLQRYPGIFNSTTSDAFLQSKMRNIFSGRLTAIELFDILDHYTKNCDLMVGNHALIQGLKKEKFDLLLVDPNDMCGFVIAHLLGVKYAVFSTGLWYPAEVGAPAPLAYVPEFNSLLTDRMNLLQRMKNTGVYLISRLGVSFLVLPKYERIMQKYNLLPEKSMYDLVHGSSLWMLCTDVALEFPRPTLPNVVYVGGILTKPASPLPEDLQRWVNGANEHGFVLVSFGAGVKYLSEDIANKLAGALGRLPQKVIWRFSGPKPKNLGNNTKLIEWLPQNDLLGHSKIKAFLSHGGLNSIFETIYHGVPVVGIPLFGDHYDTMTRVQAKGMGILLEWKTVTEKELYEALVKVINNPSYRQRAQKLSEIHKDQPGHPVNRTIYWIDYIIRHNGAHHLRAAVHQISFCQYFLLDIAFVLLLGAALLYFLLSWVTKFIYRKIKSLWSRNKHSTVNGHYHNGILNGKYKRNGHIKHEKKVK
# Assay: In vitro sulfatide (SFT) synthesis inhibition in OE19 cells, LC-MS/MS readout
# Assay type: cell-based
# Details: 72 hr, sulfatide by LC-MS/MS
# Experimental: For medium throughput screening, library compounds were dispensed into CellBIND 384 well plates to a final concentration of 10 μM. OE19 cells (Sigma) were grown in to 70-90% confluency in RPMI 1640+L-glutamine and […]; were trypsinized to achieve suspension and were aliquoted at 2,500 cells/well, total well volume 50 μl. Plates were incubated 72 hr at 37° C. in 5% CO2; supernatant was removed and plates were dried, heat-sealed and stored at −20° C. until analysis.
# For IC50 determinations, the same procedure was followed except that test compounds were added to the plate as dose-downs in triplicate to yield concentration response curves.
# Mass Spectrometer Analysis of Sulfatide (SFT):
# Assay plates were thawed and 85 μl mobile phase B (5 mM ammonium formate^+0.2% formic acid in 50:50 methanol:acetonitrile). Fifteen μl 20 ng/ml C17 SFT in mobile phase B was added as an internal standard.
# SFT was analyzed using an Applied Biosystems API-4000 triple quad mass spectrometer interfaced to a Thermo Scientific Multiplex system (LX-4) equipped with four pumps. Chromatography of OE19 cell samples or 2B5-mouse cells treated with compounds was performed using a Waters Acquity UPLC BEH C8 2.1×50 mm column with 1.7 um particle size. The chromatography was performed using the following mobile phases. Mobile phase A (MPA): 0.2% formic acid and 5 mM ammonium formate in deionized water; MPB: see above. The LC method was run in isocratic mode for 4 sequentially running columns using 95% MPB and 5% MPA with flow rate of 1 ml/min and a column temperature of 60° C.
# The Triple quad mass spectrometer was run in Negative Ionization mode monitoring the following MRM transitions and using the following parameters:
# Electrospray voltage was […], and source temperature was 550° C.
row,SMILES,"Potency range (IC50, In-vitro SFT)"
1,"CNC(=O)c1csc2c(C(F)(F)F)cc(N3CCC(OC(=O)NCC4CC4)CC3)nc12.Cl [Example 669, [1-[3-(Methylcarbamoyl)-7-(trifluoromethyl)thieno[3,2-b]pyridin-5-yl]-4-piperidyl] N-(cyclopropylmethyl)carbamate hydrochloride]",A (A < 0.1 uM)

# Same assay, conditions: 72 hr, sulfatide by LC-MS/MS, read-out: Potency range (IC50, In-vitro SFT)
row,IC50 [nM],SMILES
1,100 to 1000,"CNC(=O)c1csc2c(C(F)(F)F)cc(N3CCC(OC(=O)N4C[C@H](N(C)C)[C@@H]4C)CC3)nc12 [Example 793, 1-(3-(Methylcarbamoyl)-7-(trifluoromethyl)thieno[3,2-b]pyridin-5-yl)piperidin-4-yl (2S,3S)-3-(dimethylamino)-2-methylazetidine-1-carboxylate]"
2,< 100,"CNC(=O)c1csc2c(C(F)(F)F)cc(OC3CN(C(=O)OCCOC(F)(F)F)C3)nc12 [Example 256, 2-(Trifluoromethoxy)ethyl 3-((3-(methylcarbamoyl)-7-(trifluoromethyl)thieno[3,2-b]pyridin-5-yl)oxy)azetidine-1-carboxylate]"
3,> 1000,"CNC(=O)c1csc2c(C(F)(F)F)cc(N3CCC(NC(=O)O[C@H]4CCN(C)[C@H]4C)CC3)nc12 [Example 809, (2S,3S)-1,2-Dimethylpyrrolidin-3-yl (1-(3-(methylcarbamoyl)-7-(trifluoromethyl)thieno[3,2-b]pyridin-5-yl)piperidin-4-yl)carbamate]"
4,< 100,"CNC(=O)c1csc2c(C(F)(F)F)cc(N3CCC(NC(=O)OC(C)C)CC3)nc12 [Example 816, Isopropyl (1-(3-(methylcarbamoyl)-7-(trifluoromethyl)thieno[3,2-b]pyridin-5-yl)piperidin-4-yl)carbamate]"
5,< 100,"CNC(=O)c1csc2c(C(F)(F)F)cc(N3CCC(OC(=O)NC(C)C(F)F)CC3)nc12 (stereo not drawn) [Example 670, [1-[3-(Methylcarbamoyl)-7-(trifluoromethyl)thieno[3,2-b]pyridin-5-yl]-4-piperidyl] N-(2,2-difluoro-1-methyl-ethyl)carbamate]"
6,< 100,"CNC(=O)c1csc2c(C(F)(F)F)cc(O[C@H]3CN(C(=O)OCC4CC4)C[C@H]3F)nc12 (racemic) [Example 610, Cyclopropylmethyl (+/−)-cis-3-fluoro-4-((3-(methylcarbamoyl)-7-(trifluoromethyl)thieno[3,2-b]pyridin-5-yl)oxy)pyrrolidine-1-carboxylate]"
7,< 100,"CNC(=O)c1csc2c(C(F)(F)F)cc(O[C@H]3CN(C(=O)OCCOC(F)(F)F)C[C@H]3F)nc12 (racemic) [Example 611, 2-(Trifluoromethoxy)ethyl (+/−)-cis-3-fluoro-4-((3-(methylcarbamoyl)-7-(trifluoromethyl)thieno[3,2-b]pyridin-5-yl)oxy)pyrrolidine-1-carboxylate]"
8,< 100,"CNC(=O)c1csc2c(C(F)(F)F)cc(N3CCC(OC(=O)N4C[C@@H](N(C)C)[C@@H]4C)CC3)nc12 [Example 794, 1-(3-(Methylcarbamoyl)-7-(trifluoromethyl)thieno[3,2-b]pyridin-5-yl)piperidin-4-yl (2S,3R)-3-(dimethylamino)-2-methylazetidine-1-carboxylate]"
9,100 to 1000,"CNC(=O)c1csc2c(C(F)(F)F)cc(N3CCN(CC(C)OCC4CC4)CC3)nc12 (racemic) [Example 39, (+/−)-5-(4-(2-(Cyclopropylmethoxy)propyl)piperazin-1-yl)-N-methyl-7-(trifluoromethyl)thieno[3,2-b]pyridine-3-carboxamide]"

# The remaining lines, values behind:
row,SMILES,IC50 [nM]
1,"CNC(=O)c1csc2c(C(F)(F)F)cc(N3CCC(OC(=O)N4CCC4)CC3)nc12 [Example 60, 1-(3-(Methylcarbamoyl)-7-(trifluoromethyl)thieno[3,2-b]pyridin-5-yl)piperidin-4-yl azetidine-1-carboxylate]",< 100
2,"CNC(=O)c1csc2c(C(F)(F)F)cc(N3CC[C@H](OC(=O)NC4CC4)[C@@H](F)C3)nc12 (racemic) [Example 492, (+/−)-trans-3-Fluoro-1-(3-(methylcarbamoyl)-7-(trifluoromethyl)thieno[3,2-b]pyridin-5-yl)piperidin-4-yl cyclopropylcarbamate]",< 100
3,"CNC(=O)c1csc2c(C(F)(F)F)cc(N3CC[C@H](OC(=O)NC(C)C)[C@@H](F)C3)nc12 (racemic) [Example 490, (+/−)-tran-3-Fluoro-1-(3-(methylcarbamoyl)-7-(trifluoromethyl)thieno[3,2-b]pyridin-5-yl)piperidin-4-yl isopropylcarbamate]",< 100
4,"CNC(=O)c1csc2c(C(F)(F)F)c(C)c(O[C@@H]3CCN(C(=O)O[C@@H](C)COC(F)(F)F)[C@H](C)C3)nc12 [Example 176, (S)-1-(Trifluoromethoxy)propan-2-yl (2R,4R)-2-methyl-4-((6-methyl-3-(methylcarbamoyl)-7-(trifluoromethyl)thieno[3,2-b]pyridin-5-yl)oxy)piperidine-1-carboxylate]",< 100
5,"CNC(=O)c1csc2c(C(F)(F)F)cc(O[C@@H]3CCN(C(=O)OC(C)(C)C)[C@@H](C)C3)nc12 (racemic) [Example 368, (+/−)-tert-Butyl trans-2-methyl-4-((3-(methylcarbamoyl)-7-(trifluoromethyl)thieno[3,2-b]pyridin-5-yl)oxy)piperidine-1-carboxylate]",100 to 1000
6,"COC(=O)c1csc2c(C(F)(F)F)cc(C3CCN(C(=O)OC(C)(C)C)CC3)nc12 [Example 274, Methyl 5-(1-(tert-butoxycarbonyl)piperidin-4-yl)-7-(trifluoromethyl)thieno[3,2-b]pyridine-3-carboxylate]",100 to 1000
7,"CNC(=O)c1csc2c(C(F)(F)F)cc(O[C@H]3C[C@@H](OC(=O)N[C@@H](C)COC(F)(F)F)C3)nc12 (racemic) [Example 833, (+/−)-cis-(1S,3R)-3-((3-(Methylcarbamoyl)-7-(trifluoromethyl)thieno[3,2-b]pyridin-5-yl)oxy)cyclobutyl ((S)-1-(trifluoromethoxy)propan-2-yl)carbamate]",< 100
8,"CNC(=O)c1csc2c(C(F)(F)F)c(C)c(O[C@H]3C[C@@H](NC(=O)O[C@@H](C)C4CC4)C3)nc12 [Example 220, (S)-1-Cyclopropylethyl ((1S,3R)-3-((6-methyl-3-(methylcarbamoyl)-7 (trifluoromethyl)thieno[3,2-b]pyridin-5-yl)oxy)cyclobutyl)carbamate]",< 100
9,"CNC(=O)c1csc2c(C(F)(F)F)cc(N3CC[C@H](OC(=O)N(C(C)C)C(C)C)[C@@H](F)C3)nc12 (racemic) [Example 488, (+/−)-trans-3-Fluoro-1-(3-(methylcarbamoyl)-7-(trifluoromethyl)thieno[3,2-b]pyridin-5-yl)piperidin-4-yl diisopropylcarbamate]",< 100
10,"CNC(=O)c1csc2c(C(F)(F)F)cc(O[C@H]3CCN(C(=O)OCC4CC4)C3)nc12 [Example 595, Cyclopropylmethyl (S)-3-((3-(methylcarbamoyl)-7-(trifluoromethyl)thieno[3,2-b]pyridin-5-yl)oxy)pyrrolidine-1-carboxylate]",< 100
11,"CNC(=O)c1csc2c(C(F)(F)F)cc(N3CCN(CC4CN(C(C)C)CCO4)CC3)nc12 (stereo not drawn) [Example 552, 5-(4-((4-Isopropylmorpholin-2-yl)methyl)piperazin-1-yl)-N-methyl-7-(trifluoromethyl)thieno[3,2-b]pyridine-3-carboxamide trifluoroacetate]",> 1000
